Like-named read-outs stand apart in the source and are kept apart here.
Columns and labels:
[1] = target: GST-MCL-1 (Homo sapiens (Human), UniProt Q07820); experiment: TR-FRET MCL-1 binding assay (competition with probe F-Bak)
Description: For the assay, an acoustic dispenser was used to prepare dilution series from 10 mM test compounds in 100% DMSO and directly transfer 160 nL into low volume 384-well assay plates. 8 μL of a protein/probe/antibody mix was then added to each well resulting in final concentrations listed below: Test compound: 11 three-fold dilutions beginning at 25 μM
The samples were then mixed on a shaker for 1 minute and incubated for an additional 2 hours at room temperature. For each assay plate, a probe/antibody and protein/antibody/probe mixture were included as a negative and a positive control, respectively. Fluorescence was measured on the Envision (Perkin Elmer) using a 340/35 nm excitation filter and 520/525 (F-Bak) and 495/510 nm (Tb-labeled anti-his antibody) emission filters. […] The TR-FRET assay can be performed in the presence of varying concentrations of human serum (HS) or fetal bovine serum (FBS). Compounds were tested both without HS and in the presence of 10% HS.

[2] = tested on: AMO-1 human multiple myeloma tumor cell line; experiment: AMO-1 cell viability assay (CellTiter-Glo); format: cell-based; conditions: AMO1, read-out: AMO-1 Viability IC50 (μM), 10% FBS, 24 hours of compound treatment
Description: (§1) In one exemplary set of conditions, NCI-H929 or AMO-1 (ATCC. Manassas, Va.) were plated 4.000 cells per well in 384-well tissue culture plates (Corning. Corning, N.Y.) in a total volume of 25 μL RPMI tissue culture medium supplemented with 10% fetal bovine serum (Sigma-Aldrich, St. Louis, Mo.) and treated with a 3-fold serial dilution of the compounds of interest with a Labcyte Echo from a final concentration of 10 μM to 0.0005 μM. Each concentration was tested in duplicate at least 3 independent times. A luminescent signal proportional to the number of viable cells following 24 hours of compound treatment was determined using the CellTiter-Glo® Luminescent Cell Viability Assay according to the manufacturer's recommendations (Promega Corp., Madison, Wis.). The plates were read in a Perkin Elmer Envision using a Luminescence protocol. To generate dose response curves the data is normalized to percent viability by setting the averages of the staurosporine (10 uM) and DMSO only control wells to 0% and (00)% viability respectively. The IC50 values for the compounds are generated by fitting the normalized data with Accelrys Assay Explorer 3.3 to a sigmoidal curve model using linear regression.

[3] = tested on: NCI-H929 human multiple myeloma tumor cell line; experiment: NCI-H929 cell viability assay (CellTiter-Glo); format: cell-based; conditions: NCI-H929, read-out: H929 Viability IC50 (μM), 10% FBS, 24 hours of compound treatment
Description: as §1

[4] = read-out: MCL-1 Binding Ki (nM, 10% HS), in the presence of 10% HS
[5] = without HS, read-out: MCL-1 Binding Ki

Chain of GST-MCL-1 (Q07820 whole entry): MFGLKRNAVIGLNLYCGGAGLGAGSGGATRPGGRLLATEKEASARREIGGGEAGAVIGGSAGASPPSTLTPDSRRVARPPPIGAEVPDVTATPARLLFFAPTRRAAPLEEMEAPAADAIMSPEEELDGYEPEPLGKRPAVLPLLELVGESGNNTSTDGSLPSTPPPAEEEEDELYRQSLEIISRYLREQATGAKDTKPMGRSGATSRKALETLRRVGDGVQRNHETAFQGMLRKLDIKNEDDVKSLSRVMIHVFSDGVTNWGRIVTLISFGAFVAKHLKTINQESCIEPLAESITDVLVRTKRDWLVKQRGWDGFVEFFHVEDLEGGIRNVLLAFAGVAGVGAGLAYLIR

Structure (SMILES)	Ki [1, 4] [nM]	Ki [1, 5] [nM]	IC50 [2] [nM]	IC50 [3] [µM]
Cc1c(Cl)c2c(Cl)c(C)c1-c1c(-c3ccc(F)cc3)sc3ncnc(c13)O[C@@H](C(=O)O)Cc1cc(ccc1OCc1ccnc(-c3ccc(NC[C@@H]4COCCO4)nc3)n1)OC[C@@H](CN1CCN(C)CC1)O2 [Example 41, (7R,16R)-19,23-dichloro-10-({2-[6-({[(2R)-1,4-dioxan-2-yl]methyl}amino)pyridin-3-yl]pyrimidin-4-yl}methoxy)-1-(4-fluorophenyl)-20,22-dimethyl-16-[(4-methylpiperazin-1-yl)methyl]-7,8,15,16-tetrahydro-18,21-etheno-13,9-(metheno)-6,14,17-trioxa-2-thia-3,5-diazacyclononadeca[1,2,3-cd]indene-7-carboxylic acid]	0.14	0.009	0.589	0.000595
Cc1c(Cl)c2c(Cl)c(C)c1-c1c(C3CCC3)sc3ncnc(c13)O[C@@H](C(=O)O)Cc1cc(ccc1OCc1ccnc([C@H]3CC[C@H](OCC4COCCO4)CC3)n1)OC[C@@H](CN1CCN(C)CC1)O2 (stereo partly drawn) [Example 29, (7R,16R)-19,23-dichloro-1-cyclobutyl-10-[(2-{(1r,4r)-4-[(1,4-dioxan-2-yl)methoxy]cyclohexyl}pyrimidin-4-yl)methoxy]-20,22-dimethyl-16-[(4-methylpiperazin-1-yl)methyl]-7,8,15,16-tetrahydro-18,21-etheno-13,9-(metheno)-6,14,17-trioxa-2-thia-3,5-diazacyclononadeca[1,2,3-cd]indene-7-carboxylic acid]	0.55	0.011	0.0812	0.000346
Cc1c(Cl)c2c(Cl)c(C)c1-c1c(-c3ccc(F)cc3)sc3ncnc(c13)O[C@@H](C(=O)O)Cc1cc(ccc1OCc1ccnc([C@H]3CC[C@H](OC[C@@H]4COCCO4)CC3)n1)OC[C@@H](CN1CCN(C)CC1)O2 [Example 44, (7R,16R)-19,23-dichloro-10-({2-[(1S,4r)-4-{[(2S)-1,4-dioxan-2-yl]methoxy}cyclohexyl]pyrimidin-4-yl}methoxy)-1-(4-fluorophenyl)-20,22-dimethyl-16-[(4-methylpiperazin-1-yl)methyl]-7,8,15,16-tetrahydro-18,21-etheno-13,9-(metheno)-6,14,17-trioxa-2-thia-3,5-diazacyclononadeca[1,2,3-cd]indene-7-carboxylic acid]	0.16	0.02	0.268	0.000286
Cc1c(Cl)c2c(Cl)c(C)c1-c1c(C3=CCCC3)sc3ncnc(c13)O[C@@H](C(=O)O)Cc1cc(ccc1OCc1ccnc([C@H]3CC[C@H](OCC4COCCO4)CC3)n1)OC[C@@H](CN1CCN(C)CC1)O2 (stereo partly drawn) [Example 32, (7R,16R)-19,23-dichloro-1-(cyclopent-1-en-1-yl)-10-[(2-{(1r,4r)-4-[(1,4-dioxan-2-yl)methoxy]cyclohexyl}pyrimidin-4-yl)methoxy]-20,22-dimethyl-16-[(4-methylpiperazin-1-yl)methyl]-7,8,15,16-tetrahydro-18,21-etheno-13,9-(metheno)-6,14,17-trioxa-2-thia-3,5-diazacyclononadeca[1,2,3-cd]indene-7-carboxylic acid]	0.27	0.022	0.17	0.000296
Cc1c(Cl)c2c(Cl)c(C)c1-c1c(-c3ccc(F)cc3)sc3ncnc(c13)O[C@@H](C(=O)O)Cc1cc(ccc1OCc1ccnc(C3=CC[C@](F)(COC[C@H]4COCCO4)CC3)n1)OC[C@@H](CN1CCN(C)CC1)O2 [Example 40, (7R,16R)-19,23-dichloro-10-({2-[(4S)-4-({[(2R)-1,4-dioxan-2-yl]methoxy}methyl)-4-fluorocyclohex-1-en-1-yl]pyrimidin-4-yl}methoxy)-1-(4-fluorophenyl)-20,22-dimethyl-16-[(4-methylpiperazin-1-yl)methyl]-7,8,15,16-tetrahydro-18,21-etheno-13,9-(metheno)-6,14,17-trioxa-2-thia-3,5-diazacyclononadeca[1,2,3-cd]indene-7-carboxylic acid]	0.63	0.014	0.352	0.000271
Cc1c(Cl)c2c(Cl)c(C)c1-c1c(-c3ccc(F)cc3)sc3ncnc(c13)O[C@@H](C(=O)O)Cc1cc(ccc1OCc1ccnc([C@H]3CC[C@@](F)(COC[C@@H]4COCCO4)CC3)n1)OC[C@@H](CN1CCN(C)CC1)O2 [Example 46, (7R,16R)-19,23-dichloro-10-({2-[(1S,4r)-4-({[(2S)-1,4-dioxan-2-yl]methoxy}methyl)-4-fluorocyclohexyl]pyrimidin-4-yl}methoxy)-1-(4-fluorophenyl)-20,22-dimethyl-16-[(4-methylpiperazin-1-yl)methyl]-7,8,15,16-tetrahydro-18,21-etheno-13,9-(metheno)-6,14,17-trioxa-2-thia-3,5-diazacyclononadeca[1,2,3-cd]indene-7-carboxylic acid]	0.24	0.022	0.579	0.000418
COc1ccccc1-c1nccc(COc2ccc3cc2C[C@H](C(=O)O)Oc2ncnc4sc(C5=COCCO5)c(c24)-c2c(C)c(Cl)c(c(Cl)c2C)O[C@H](CN2CCN(C)CC2)CO3)n1 [Example 27, (7R,16R)-19,23-dichloro-1-(5,6-dihydro-1,4-dioxin-2-yl)-10-{[2-(2-methoxyphenyl)pyrimidin-4-yl]methoxy}-20,22-dimethyl-16-[(4-methylpiperazin-1-yl)methyl]-7,8,15,16-tetrahydro-18,21-etheno-13,9-(metheno)-6,14,17-trioxa-2-thia-3,5-diazacyclononadeca[1,2,3-cd]indene-7-carboxylic acid]	0.02	0.008	0.435	0.0015
Cc1c(Cl)c2c(Cl)c(C)c1-c1c(-c3ccc(F)cc3)sc3ncnc(c13)O[C@@H](C(=O)O)Cc1cc(ccc1OCc1cncc(-c3ccc(OC[C@H]4COCCO4)cc3)n1)OC[C@@H](CN1CCN(C)CC1)O2 [Example 16, (7R,16R)-19,23-dichloro-10-{[6-(4-{[(2R)-1,4-dioxan-2-yl]methoxy}phenyl)pyrazin-2-yl]methoxy}-1-(4-fluorophenyl)-20,22-dimethyl-16-[(4-methylpiperazin-1-yl)methyl]-7,8,15,16-tetrahydro-18,21-etheno-13,9-(metheno)-6,14,17-trioxa-2-thia-3,5-diazacyclononadeca[1,2,3-cd]indene-7-carboxylic acid]	0.83	0.048	0.245	0.000592
Cc1c(Cl)c2c(Cl)c(C)c1-c1c(-c3ccc(F)cc3)sc3ncnc(c13)O[C@@H](C(=O)O)Cc1cc(ccc1OCc1ccnc([C@H]3CC[C@H](COC[C@@H]4COCCO4)CC3)n1)OC[C@@H](CN1CCN(C)CC1)O2 [Example 49, (7R,16R)-19,23-dichloro-10-({2-[(1S,4r)-4-({[(2R)-1,4-dioxan-2-yl]methoxy}methyl)cyclohexyl]pyrimidin-4-yl}methoxy)-1-(4-fluorophenyl)-20,22-dimethyl-16-[(4-methylpiperazin-1-yl)methyl]-7,8,15,16-tetrahydro-18,21-etheno-13,9-(metheno)-6,14,17-trioxa-2-thia-3,5-diazacyclononadeca[1,2,3-cd]indene-7-carboxylic acid]	0.128	< 0.01	0.172	0.000314
Cc1c(Cl)c2c(Cl)c(C)c1-c1c(-c3ccc(F)cc3)sc3ncnc(c13)O[C@@H](C(=O)O)Cc1cc(ccc1OCc1ccnc(-c3ccc(OC[C@H]4COCCO4)cc3)n1)OC[C@@H](CN1CCN(C)CC1)O2 [Example 2, (7R,16R)-19,23-dichloro-10-{[2-(4-{[(2R)-1,4-dioxan-2-yl]methoxy}phenyl)pyrimidin-4-yl]methoxy}-1-(4-fluorophenyl)-20,22-dimethyl-16-[(4-methylpiperazin-1-yl)methyl]-7,8,15,16-tetrahydro-18,21-etheno-13,9-(metheno)-6,14,17-trioxa-2-thia-3,5-diazacyclononadeca[1,2,3-cd]indene-7-carboxylic acid]	1.04	0.052	0.19	0.0033
Cc1c(Cl)c2c(Cl)c(C)c1-c1c(-c3ccc(F)cc3)sc3ncnc(c13)O[C@@H](C(=O)O)Cc1cc(ccc1OCc1ccnc(N3CCN(S(=O)(=O)CC4COCCO4)CC3)n1)OC[C@@H](CN1CCN(C)CC1)O2 (stereo partly drawn) [Example 26, (7R,16R)-19,23-dichloro-10-[(2-{4-[(1,4-dioxan-2-yl)methanesulfonyl]piperazin-1-yl}pyrimidin-4-yl)methoxy]-1-(4-fluorophenyl)-20,22-dimethyl-16-[(4-methylpiperazin-1-yl)methyl]-7,8,15,16-tetrahydro-18,21-etheno-13,9-(metheno)-6,14,17-trioxa-2-thia-3,5-diazacyclononadeca[1,2,3-cd]indene-7-carboxylic acid]	1	0.104	0.2	0.000241
